Laboratory results taken from patent publication US4851416A, “Berban derivatives as α2 -adrenergic antagonists” (priority 1985, dated 1989).
Counter-ions that a name gives are not always drawn. Like-named read-outs stand apart in the source and are kept apart here. One block for each molecule: values may come before it.

Key:
[1] = biological target: T1, α2-receptors of the rat vas deferens (Rattus norvegicus, UniProt P22909); test: Antagonism of α2-receptors of the rat vas deferens (xylazine as agonist); type: biochemical; conditions: for Kb: read-out: pA2 (α2, rat vas deferens) (converted)
T1 construct: from tissue; host or cells: rat vas deferens
T1 sequence (P22909 1-465): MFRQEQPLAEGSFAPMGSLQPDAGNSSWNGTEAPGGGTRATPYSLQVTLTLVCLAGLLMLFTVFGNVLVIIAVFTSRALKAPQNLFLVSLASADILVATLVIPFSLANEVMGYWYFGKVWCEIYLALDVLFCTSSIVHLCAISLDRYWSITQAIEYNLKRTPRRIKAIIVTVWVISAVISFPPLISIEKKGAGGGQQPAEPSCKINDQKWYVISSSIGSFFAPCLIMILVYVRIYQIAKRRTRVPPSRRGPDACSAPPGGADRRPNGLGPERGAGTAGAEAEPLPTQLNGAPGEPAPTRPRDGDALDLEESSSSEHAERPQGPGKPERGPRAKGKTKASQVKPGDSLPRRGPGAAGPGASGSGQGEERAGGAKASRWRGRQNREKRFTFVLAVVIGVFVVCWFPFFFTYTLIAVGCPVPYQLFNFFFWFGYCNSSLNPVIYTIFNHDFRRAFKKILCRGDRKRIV
Procedure: The action of known α-adrenergic receptor-blocking agents and the
formula (I) on the α2 -receptors of the rat vas deferens
(xylazine as agonist) and of the
The tissues were suspended at 37° C. in an organ bath containing 5 ml of Krebs solution. […] Both the compounds of formula (I) and the reference substances were tested against xylazine (on the rat vas daferens) as well as against […] (on the longitudinal smooth muscle preparation from the guinea pig ileum). The amplitude of the contraction response caused by the stimulation is inhibited on the α2 -adrenergic receptors by xylazine or norepinephrine.

[2] = biological target: α1-receptors of the pulmonary artery of rabbit; test: Antagonism of α1-receptors of the pulmonary artery of rabbit (norepinephrine as agonist); type: biochemical; conditions: compounds of formula (I) as hydrochlorides
Text: On the α1 -receptors of the pulmonary artery, a contraction is elicited by norepinephrine which is inhibited by antagonists.

[3] = biological target: T2, α1-receptors of the rat vas deferens (Rattus norvegicus, UniProt P43140); test: Antagonism of α1-receptors of the rat vas deferens (phenylephrine as agonist); type: biochemical; set-up: key to nature of the competition (α1, rat vas deferens): NC means non-competitive; C means competitive; conditions: for Kb: compounds of formula (I) as hydrochlorides, read-out: pA2 (α1, rat vas deferens) (converted)
T2 construct: from tissue; host or cells: rat vas deferens
T2 sequence (P43140 1-466): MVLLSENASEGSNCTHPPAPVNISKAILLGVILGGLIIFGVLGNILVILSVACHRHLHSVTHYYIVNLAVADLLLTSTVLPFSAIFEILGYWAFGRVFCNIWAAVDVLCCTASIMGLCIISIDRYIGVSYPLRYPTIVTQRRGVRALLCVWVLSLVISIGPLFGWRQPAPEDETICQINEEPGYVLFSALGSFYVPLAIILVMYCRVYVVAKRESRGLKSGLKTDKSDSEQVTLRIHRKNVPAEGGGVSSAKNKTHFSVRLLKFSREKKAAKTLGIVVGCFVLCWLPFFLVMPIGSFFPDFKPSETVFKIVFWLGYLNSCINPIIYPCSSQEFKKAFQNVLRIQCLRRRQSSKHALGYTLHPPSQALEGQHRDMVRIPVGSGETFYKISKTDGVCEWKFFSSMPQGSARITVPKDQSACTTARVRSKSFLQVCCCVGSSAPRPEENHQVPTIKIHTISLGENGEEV
Procedure: Phenylephrine was used as agonist on the α1 -adrenergic receptors whereby both the rat vas deferens and the pulmonary artery of the rabbit were contracted. […] The pA2 value was determined by using the method of Arunlakshana and Schield (1959) cited above. The nature of the competition is also given (NC means non-competitive, C means competitive).

[4] = tested on: norepinephrine turnover in the frontal cortex; test: Norepinephrine turnover in the frontal cortex after α-methyl-p-tyrosine; type: in vivo, rat; conditions: for Kb (fractional rate constant) / Tt (catecholamine turnover time) / TRCA (catecholamine turnover rate): NE, with α-MPT; for TRCA (catecholamine turnover rate): ** p 0.01, *** p 0.001 vs control; for NE content: α-MPT 320 mg/kg i.p. pre-treatment, 4 animals
Procedure: (§1) Male rates with 100 g of body-weight were intraperitoneally pre-treated (at minute 0) with 320 mg/kg of α-methyl-p-tyrosine. […] After centrifuging, the norepinephrine content (frontal cortex) or the dopamine content (striatum) of the supernatant, respectively, was determined by using the method of the […] liquid chromatography-electrochemical detection. […] The significance level of the difference related to the control group was also determined (** p 0.01; *** p 0.001).

[5] = tested on: dopamine turnover in the striatum; test: Dopamine turnover in the striatum after α-methyl-p-tyrosine; type: in vivo, rat; conditions: for Kb (fractional rate constant) / Tt (catecholamine turnover time) / TRCA (catecholamine turnover rate): DA, with α-MPT; for TRCA (catecholamine turnover rate): ** p 0.01 vs control; for DA content: α-MPT 320 mg/kg i.p. pre-treatment, 4 animals
Procedure: as §1

[6] = biological target: α1-receptors of the pulmonary artery of rabbit; test: Antagonism of α1-receptors of the pulmonary artery of rabbit (phenylephrine as agonist); type: biochemical; conditions: compounds of formula (I) as hydrochlorides
Procedure: The action of known α-adrenergic receptor-blocking
on the α1 -receptors of the rat vas deferens and of
the pulmonary artery of rabbit against phenylephrine
Phenylephrine was used as agonist on the α1 -adrenergic receptors whereby both the rat vas deferens and the pulmonary artery of the rabbit were contracted. This concractile effect was inhibited by antagonists. The pA2 value was determined by using the method of Arunlakshana and Schield (1959) cited above. The nature of the competition is also given (NC means non-competitive, C means competitive).

[7] = tested on: α2-receptors (vs α1-receptors) of the rat vas deferens; test: Selectivity against the α2-receptors on the rat vas deferens (from Tables 1 and 2); type: biochemical; conditions: calculated from Tables 1 and 2, hydrochlorides
Text: The pA2 values concerning the α1 -receptor of the antagonists were divided by the pA2 values concerning the α2 -receptor of the antagonists (α1 /α2).

[8] = xylazine as agonist, compounds of formula (I) as hydrochlorides, (n) in brackets

SMILES: Oc1cc2c(cc1O)[C@H]1C[C@H]3C[C@@H](O)CC[C@H]3CN1CC2 (relative stereo) [As hydrobromide]
Relative activity, vas deferens [1]: 0.01
pA2 (α2, rat vas deferens) [1, 8]: 5.74 ± 0.11

SMILES: CCOc1cc2c(cc1OCC)[C@H]1C[C@H]3C[C@@H](O)CC[C@H]3CN1CC2 (relative stereo) [Example 11, 14β-hydroxy-7,8-diethoxyalloberban]
Relative activity, vas deferens [1]: 0.05
Kb [1, 8]: 380 nM

SMILES: O[C@H]1CC[C@H]2CN3CCc4cc5c(cc4[C@H]3C[C@H]2C1)OCO5 (relative stereo) [Example 25, 14β-hydroxy-7,8-methylenedioxyalloberban]
pA2 (α1, pulmonary artery of rabbit) [2]: 4.83 ± 0.52
nature of the competition (α1, rat vas deferens) [3]: NC
Kb [3]: 14100 nM

SMILES: CCOC(=O)C1C(O)CCC2CN3CCc4cc5c(cc4C3CC21)OCO5 (stereo not drawn) [Example 17, ethyl 14β-hydroxy-7,8-methylenedioxyalloberban-13-carboxylate]
nature of the competition (α1, rat vas deferens) [3]: NC
Kb [3]: 3090 nM

SMILES: c1ccc2c(c1)OCC(C1=NCCN1)O2 (centres unmarked) [Idazoxan, reference compound]
pA2 (α1, pulmonary artery of rabbit) [2]: 6.03 ± 0.11
nature of the competition (α1, rat vas deferens) [3]: NC
Kb [3]: 1000 nM

SMILES: COC(=O)[C@@H]1[C@H]2C[C@H]3c4[nH]c5ccccc5c4CCN3C[C@@H]2CC[C@@H]1O [Yohimbine, reference compound]
pA2 (α1, pulmonary artery of rabbit) [2]: 5.81 ± 0.37
Kb (fractional rate constant) [4]: 0.880 h⁻¹
Tt (catecholamine turnover time) [4]: 1.13 h
TRCA (catecholamine turnover rate) [4]: 0.87 ± 0.06 nmole/g, h^-1
NE content [4]: 0.99 ± 0.07 nmol/g
nature of the competition (α1, rat vas deferens) [3]: NC
pA2 (α1, pulmonary artery of rabbit) [6]: 5.59 ± 0.4
Kb (fractional rate constant) [5]: 0.906 h⁻¹
Tt (catecholamine turnover time) [5]: 1.10 h
TRCA (catecholamine turnover rate) [5]: 58.40 ± 5.47 nmole/g, h^-1
DA content [5]: 64.46 ± 6.04 nmol/g

Second part, led by results:

pA2 (α1, pulmonary artery of rabbit) [2]: 5.29 ± 0.20
nature of the competition (α1, rat vas deferens) [3]: NC
Kb [3]: 11200 nM
SMILES: O[C@@H]1CC[C@H]2CN3CCc4cc5c(cc4[C@H]3C[C@H]2C1)OCO5 (relative stereo) [Example 26, 14α-hydroxy-7,8-methylenedioxyalloberban]
Kb (fractional rate constant) [4]: 0.740 h⁻¹
Tt (catecholamine turnover time) [4]: 1.35 h
TRCA (catecholamine turnover rate) [4]: 0.64 ± 0.03 nmole/g, h^-1
NE content [4]: 0.87 ± 0.05 nmol/g
Kb (fractional rate constant) [5]: 0.776 h⁻¹
Tt (catecholamine turnover time) [5]: 1.28 h
TRCA (catecholamine turnover rate) [5]: 37.27 ± 3.62 nmole/g, h^-1
DA content [5]: 48.03 ± 4.66 nmol/g

nature of the competition (α1, rat vas deferens) [3]: NC
Kb [3]: 661 nM
pA2 (α1, pulmonary artery of rabbit) [6]: 4.68 ± 0.27
SMILES: COC(=O)C1C(O)CCC2CN3CCc4cc5c(cc4C3CC21)OCO5 (stereo not drawn) [Example 1, methyl 14-β-hydroxy-7,8-methylenedioxy-alloberban-13-carboxylate]

pA2 (α1, pulmonary artery of rabbit) [6]: 4.61 ± 0.2
SMILES: COC(=O)C1C(O)CCC2CN3CCc4cc5c(cc4C3CC21)OCO5 (stereo not drawn) [Example 6, methyl 14α-hydroxy-7,8-methylenedioxyberban-13-carboxylate]

nature of the competition (α1, rat vas deferens) [3]: NC
Kb [3]: 52.5 nM
Selectivity α1/α2 [7]: 0.36
Kb [1, 8]: 145 nM
Relative activity, vas deferens ([1]; α2-inhibiting effect relative to yohimbine = 1.0): 0.13
SMILES: CCn1ccnc1CC1COc2ccccc2O1 (centres unmarked) [Imiloxan, reference compound]

nature of the competition (α1, rat vas deferens) [3]: C
SMILES: Cc1ccc(N(CC2=NCCN2)c2cccc(O)c2)cc1 [Phentolamine, reference compound]
